In patent US20220117912A1, “L-PIPECOLIC ACID COCRYSTAL OF CANNABIDIOL” (EBERS TECH INC., priority 2019, published 2022):

Assays:
[1] = Exposure to relative humidity (RH) stress, XRPD afterwards; type: physicochemical; conditions: 95% RH for 8 days
From the text: X-Ray Powder Diffraction (XRPD): The Rigaku Smart-Lab X-ray diffraction system was configured for reflection Bragg-Brentano geometry using a line source X-ray beam. The x-ray source is a Cu Long Fine Focus tube that was operated at 40 kV and 44 ma. That source provides an incident beam profile at the sample that changes from a narrow line at high angles to a broad rectangle at low angles. Beam conditioning slits are used on the line X-ray source to ensure that the maximum beam size is less than 10 mm both along the line and normal to the line. The Bragg-Brentano geometry is a para-focusing geometry controlled by passive divergence and receiving slits with the sample itself acting as the focusing component for the optics. The inherent resolution of Bragg-Brentano geometry is governed in part by the diffractometer radius and the width of the receiving slit used. Typically, the Rigaku Smart-Lab is operated to give peak widths of 0.1° 2θ or less. The axial divergence of the X-ray beam is controlled by 5.0-degree Soller slits in both the incident and diffracted beam paths. […] Each sample was analyzed from 2 to 40° 2θ using a continuous scan of 6° 2θ per minute with an effective step size of 0.02° 2θ. In the case of high resolution XRPD, samples were analyzed with a scan rate of 1° 2θ per minute with a sample spin rate of 50 rpm. […]

[2] = Visual water solubility test of the cocrystal (0.6 mg in 3 mL water, shaken and sonicated); type: physicochemical
Method: 0.6 mg of the cocrystal was placed in a glass vial and 3 mL of water was added. The slurry was immediately shaken and sonicated.

Question: Which “Solid-form stability under humidity stress (XRPD pattern after stress)” value [1] does the source give for `C=C(C)[C@@H]1CCC(C)=C[C@H]1c1c(O)cc(CCCCC)cc1O.O=C(O)[C@@H]1CCCCN1` [1:1 cannabidiol:L-pipecolic acid cocrystal] here?
Answer: The value was “cocrystal disassociated during the experiment”.

Question: What about the “Visual dissolution in water” value ([2]; 0.6 mg of cocrystal in 3 mL of water, shaken and sonicated) of the same molecule?
Answer: The value was “none of the solid dissolved”.

Question: What about the Water solubility ([2]; water) of the same molecule?
Answer: The Water solubility was “less than 0.2 mg/mL”.
